Tests used:
[1] = test system: S. pneumoniae D39V; assay: fitness (endpoint OD595 vs no drug) (fraction); higher = more growth
Outline: (§1)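 In 384-well plates at 37 °C, cultures began at OD595 0.01 in 30 µl, with 55 µl used for S. pneumoniae. OD595 readings every 30 min for 14 h were corrected by the first reading. Fitness divides the stationary-phase transition optical density by the robust mean of no-drug control wells. The result is capped at 1.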

[2] = test system: B. subtilis 168; assay: as above
Outline: as §1
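Note: OD595 on entry to stationary phase over no-drug wells; at most 1.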

CN(C)[C@@H]1C(O)=C(C(N)=O)C(=O)[C@@]2(O)C(O)=C3C(=O)c4c(O)ccc(Cl)c4[C@@](C)(O)[C@H]3C[C@@H]12 [Chlortetracycline] + C[C@@H](O)[C@H]1C(=O)N2C(C(=O)O)=C(SCCNC=N)C[C@H]12 [Imipenem]
fitness, [1]
Details | first compound 0.012 µg/mL | first compound 0.024 µg/mL | first compound 0.048 µg/mL | first compound 0.375 µg/mL | first compound 0.75 µg/mL | first compound 1.5 µg/mL
partner 0.005 µg/mL | – | – | – | 0.0486 | 0.0409 | 0.0284
partner 0.0065 µg/mL | 0.894 | 0.799 | 0.686 | – | – | –
partner 0.01 µg/mL | – | – | – | 0.0501 | 0.0583 | 0.0373
partner 0.013 µg/mL | 0.863 | 0.865 | 0.837 | – | – | –
partner 0.02 µg/mL | – | – | – | 0.0339 | 0.065 | 0.065
partner 0.026 µg/mL | 0.724 | 0.761 | 0.724 | – | – | –

CC(=O)Oc1ccccc1C(=O)O [Acetylsalicylic acid] + Clc1ccc(COC(Cn2ccnc2)c2ccc(Cl)cc2Cl)c(Cl)c1 [Miconazole]
fitness, [1]
Details | partner 1.073 µg/mL | partner 1.25 µg/mL | partner 2.145 µg/mL | partner 2.5 µg/mL | partner 4.29 µg/mL | partner 5 µg/mL
first compound 250 µg/mL | ≥ 1 | 0.902 | 0.943 | 0.863 | 0.9 | 0.937
first compound 500 µg/mL | ≥ 1 | 0.816 | 0.918 | 0.772 | 0.858 | 0.844
first compound 1000 µg/mL | ≥ 1 | 0.643 | 0.957 | 0.589 | 0.875 | 0.656

CC(=O)Oc1ccccc1C(=O)O [Acetylsalicylic acid] + C/C(=C\C(=O)OCCCCCCCCC(=O)O)C[C@@H]1OC[C@H](C[C@@H]2O[C@H]2[C@@H](C)[C@H](C)O)[C@@H](O)[C@H]1O [Pseudomonic acid]
fitness, [1]
Details | first compound 250 µg/mL | first compound 500 µg/mL | first compound 1000 µg/mL
partner 0.03 µg/mL | 0.933 | 0.9 | 0.825
partner 0.06 µg/mL | 0.822 | 0.723 | –
partner 0.12 µg/mL | 0.542 | 0.488 | 0.383

CC(=O)Oc1ccccc1C(=O)O [Acetylsalicylic acid] + C[C@@H](O)[C@H]1C(=O)N2C(C(=O)O)=C(SCCNC=N)C[C@H]12 [Imipenem]
fitness, [1]
Details | partner 0.005 µg/mL | partner 0.0065 µg/mL | partner 0.01 µg/mL | partner 0.013 µg/mL | partner 0.02 µg/mL | partner 0.026 µg/mL
first compound 250 µg/mL | 0.948 | 0.983 | 0.898 | 0.953 | 0.912 | 0.914
first compound 500 µg/mL | 0.956 | 0.969 | 0.954 | 0.993 | 0.955 | 0.912
first compound 1000 µg/mL | 0.856 | 0.868 | 0.85 | 0.943 | 0.813 | 0.907

CC(=O)Oc1ccccc1C(=O)O [Acetylsalicylic acid] + O=C1CN(/N=C/c2ccc([N+](=O)[O-])o2)C(=O)N1 [Nitrofurantoin]
fitness, [1]
Details | partner 1.285 µg/mL | partner 2 µg/mL | partner 2.57 µg/mL | partner 4 µg/mL | partner 8 µg/mL
first compound 250 µg/mL | 0.979 | 0.9 | 0.973 | 0.91 | 0.813
first compound 500 µg/mL | 0.974 | 0.835 | 0.947 | 0.786 | 0.742
first compound 1000 µg/mL | 0.931 | 0.513 | 0.93 | 0.446 | 0.467

[1], partner 5.14 µg/mL, one replicate
Details | fitness
first compound 250 µg/mL | 0.93
first compound 500 µg/mL | 0.888
first compound 1000 µg/mL | 0.813

CN(C)[C@@H]1C(O)=C(C(N)=O)C(=O)[C@@]2(O)C(O)=C3C(=O)c4c(O)ccc(Cl)c4[C@@](C)(O)[C@H]3C[C@@H]12 [Chlortetracycline] + Clc1ccc(COC(Cn2ccnc2)c2ccc(Cl)cc2Cl)c(Cl)c1 [Miconazole]
fitness, [1]
Details | first compound 0.012 µg/mL | first compound 0.024 µg/mL | first compound 0.048 µg/mL | first compound 0.375 µg/mL | first compound 0.75 µg/mL | first compound 1.5 µg/mL
partner 1.073 µg/mL | 0.995 | 0.926 | 0.907 | – | – | –
partner 1.25 µg/mL | – | – | – | 0.0819 | 0.0494 | 0.0765
partner 2.145 µg/mL | 0.971 | 0.935 | 0.879 | – | – | –
partner 2.5 µg/mL | – | – | – | 0.104 | 0.0646 | 0.0895
partner 4.29 µg/mL | 0.913 | 0.883 | 0.793 | – | – | –
partner 5 µg/mL | – | – | – | 0.0525 | 0.0422 | 0.0647

CN(C)[C@@H]1C(O)=C(C(N)=O)C(=O)[C@@]2(O)C(O)=C3C(=O)c4c(O)ccc(Cl)c4[C@@](C)(O)[C@H]3C[C@@H]12 [Chlortetracycline] + CO[C@@H]1[C@@H](OC(N)=O)[C@@H](O)[C@H](Oc2ccc3c(O)c(NC(=O)c4ccc(O)c(CC=C(C)C)c4)c(=O)oc3c2C)OC1(C)C [Novobiocin]
fitness, [2]
Details | first compound 0.0475 µg/mL | first compound 0.095 µg/mL | first compound 0.19 µg/mL
partner 0.0125 µg/mL | 0.909 | 0.765 | 0.469
partner 0.025 µg/mL | 0.623 | 0.653 | 0.336
partner 0.05 µg/mL | 0.986 | 0.844 | 0.398

fitness, [2], one replicate
Details | partner 0.1 µg/mL | partner 0.125 µg/mL | partner 0.2 µg/mL | partner 0.25 µg/mL | partner 0.5 µg/mL
first compound 0.0475 µg/mL | 0.948 | 0.928 | 0.934 | 0.966 | 0.648
first compound 0.095 µg/mL | 0.863 | 0.839 | 0.936 | 0.811 | 0.577
first compound 0.19 µg/mL | 0.529 | 0.548 | 0.52 | 0.537 | 0.323

CC(=O)Oc1ccccc1C(=O)O [Acetylsalicylic acid] + CN(C)C(=O)C(CCN1CCC(O)(c2ccc(Cl)cc2)CC1)(c1ccccc1)c1ccccc1 [Loperamide]
fitness, [1]
Details | partner 17.14 µg/mL | partner 20 µg/mL | partner 34.28 µg/mL | partner 40 µg/mL | partner 80 µg/mL
first compound 250 µg/mL | 0.987 | 0.989 | 0.945 | 0.982 | ≥ 1
first compound 500 µg/mL | 0.972 | ≥ 1 | 0.981 | ≥ 1 | ≥ 1
first compound 1000 µg/mL | 0.859 | 0.987 | 0.879 | 0.967 | 0.937

[1], partner 68.57 µg/mL, one replicate
Details | fitness
first compound 250 µg/mL | 0.931
first compound 500 µg/mL | 0.927
first compound 1000 µg/mL | ≥ 1

CC(=O)Oc1ccccc1C(=O)O [Acetylsalicylic acid] + CCC(C)C1C(=O)NC(=C)C(=O)NC(C(=O)NC(CSCC(C(=O)N1)NC(=O)/C(=C/C)/NC(=O)C(C(C)CC)N)C(=O)NC2C(SCC(NC(=O)CNC(=O)C3CCCN3C2=O)C(=O)NC(CCCCN)C(=O)NC4C(SCC(NC(=O)CNC(=O)C(NC(=O)C(NC(=O)C(NC(=O)CNC4=O)C)CC(C)C)CCSC)C(=O)NC(CC(=O)N)C(=O)NC(CCSC)C(=O)NC(CCCCN)C(=O)NC5C(SCC6C(=O)NC(C(=O)NC(CSC(C(C(=O)N6)NC(=O)C(NC5=O)C)C)C(=O)NC(CO)C(=O)NC(C(C)CC)C(=O)NC(CC7=CN=CN7)C(=O)NC(C(C)C)C(=O)NC(=C)C(=O)NC(CCCCN)C(=O)O)CC8=CN=CN8)C)C)C)CC(C)C [Nisin]
fitness, [1], main component drawn
Details | partner 0.4275 µg/mL | partner 0.855 µg/mL | partner 1.6 µg/mL | partner 1.71 µg/mL | partner 3.2 µg/mL | partner 6.4 µg/mL
first compound 250 µg/mL | 0.994 | 0.711 | 0.0198 | 0.0841 | 0.0317 | 0.0271
first compound 500 µg/mL | 0.974 | 0.715 | 0.0324 | 0.114 | 0.0227 | 0.0184
first compound 1000 µg/mL | – | 0.526 | 0.0339 | 0.0989 | 0.0138 | 0.0153

CN(C)[C@@H]1C(O)=C(C(N)=O)C(=O)[C@@]2(O)C(O)=C3C(=O)c4c(O)ccc(Cl)c4[C@@](C)(O)[C@H]3C[C@@H]12 [Chlortetracycline] + CO/N=C(\C(=O)N[C@@H]1C(=O)N2C(C(=O)O)=C(COC(N)=O)CS[C@H]12)c1ccco1 [Cefuroxime]
fitness, [2]
Details | first compound 0.0475 µg/mL | first compound 0.095 µg/mL | first compound 0.19 µg/mL
partner 0.04875 µg/mL | 0.667 | 0.593 | 0.162
partner 0.0975 µg/mL | 0.601 | 0.519 | 0.135
partner 0.195 µg/mL | 0.429 | 0.312 | 0.0926

fitness, [2], one replicate
Details | partner 0.39 µg/mL | partner 0.78 µg/mL | partner 1.562 µg/mL | partner 3.125 µg/mL | partner 6.25 µg/mL
first compound 0.0475 µg/mL | 0.346 | 0.362 | 0.303 | 0.275 | 0.21
first compound 0.095 µg/mL | 0.207 | 0.145 | 0.103 | 0.0825 | 0.0597
first compound 0.19 µg/mL | 0.0621 | 0.0481 | 0.038 | 0.0341 | 0.0237

CC(=O)Oc1ccccc1C(=O)O [Acetylsalicylic acid] + C[C@H]1c2cccc(O)c2C(=O)C2=C(O)[C@]3(O)C(=O)C(C(N)=O)=C(O)[C@@H](N(C)C)[C@@H]3[C@@H](O)[C@@H]21 [Doxycycline]
fitness, [1], one replicate
Details | first compound 250 µg/mL | first compound 500 µg/mL | first compound 1000 µg/mL
partner 0.003875 µg/mL | ≥ 1 | ≥ 1 | 0.95
partner 0.00775 µg/mL | 0.998 | ≥ 1 | ≥ 1

fitness, [1]
Details | first compound 250 µg/mL | first compound 500 µg/mL | first compound 1000 µg/mL
partner 0.0155 µg/mL | 0.907 | 0.941 | 0.842
partner 0.031 µg/mL | 0.825 | 0.822 | 0.668

CN(C)[C@@H]1C(O)=C(C(N)=O)C(=O)[C@@]2(O)C(O)=C3C(=O)c4c(O)ccc(Cl)c4[C@@](C)(O)[C@H]3C[C@@H]12 [Chlortetracycline] + C/C(=C\C(=O)OCCCCCCCCC(=O)O)C[C@@H]1OC[C@H](C[C@@H]2O[C@H]2[C@@H](C)[C@H](C)O)[C@@H](O)[C@H]1O [Pseudomonic acid]
fitness, [1]
Details | first compound 0.012 µg/mL | first compound 0.024 µg/mL | first compound 0.048 µg/mL | first compound 0.375 µg/mL | first compound 0.75 µg/mL | first compound 1.5 µg/mL
partner 0.03 µg/mL | 0.884 | 0.853 | 0.829 | 0.0434 | 0.0614 | 0.0477
partner 0.06 µg/mL | 0.78 | 0.75 | 0.779 | 0.0787 | 0.0801 | 0.0542
partner 0.12 µg/mL | 0.57 | 0.586 | 0.62 | 0.0891 | 0.0486 | 0.0665

From the supplement of paper PMC10627819
